Test results taken from ChEMBL document CHEMBL5465560, “Selectivity Literature for EUbOPEN Chemogenomic Library” (2024).

Tests used:
[1] = target: T1, Phosphatidylinositol 3-kinase C2 domain-containing subunit gamma (Homo sapiens) (UniProt O75747); assay: Selectivity interaction (KinomeScan (DiscoverX)) EUB0000666a PIK3C2G; conditions: at 10 µM
T1 sequence (whole entry): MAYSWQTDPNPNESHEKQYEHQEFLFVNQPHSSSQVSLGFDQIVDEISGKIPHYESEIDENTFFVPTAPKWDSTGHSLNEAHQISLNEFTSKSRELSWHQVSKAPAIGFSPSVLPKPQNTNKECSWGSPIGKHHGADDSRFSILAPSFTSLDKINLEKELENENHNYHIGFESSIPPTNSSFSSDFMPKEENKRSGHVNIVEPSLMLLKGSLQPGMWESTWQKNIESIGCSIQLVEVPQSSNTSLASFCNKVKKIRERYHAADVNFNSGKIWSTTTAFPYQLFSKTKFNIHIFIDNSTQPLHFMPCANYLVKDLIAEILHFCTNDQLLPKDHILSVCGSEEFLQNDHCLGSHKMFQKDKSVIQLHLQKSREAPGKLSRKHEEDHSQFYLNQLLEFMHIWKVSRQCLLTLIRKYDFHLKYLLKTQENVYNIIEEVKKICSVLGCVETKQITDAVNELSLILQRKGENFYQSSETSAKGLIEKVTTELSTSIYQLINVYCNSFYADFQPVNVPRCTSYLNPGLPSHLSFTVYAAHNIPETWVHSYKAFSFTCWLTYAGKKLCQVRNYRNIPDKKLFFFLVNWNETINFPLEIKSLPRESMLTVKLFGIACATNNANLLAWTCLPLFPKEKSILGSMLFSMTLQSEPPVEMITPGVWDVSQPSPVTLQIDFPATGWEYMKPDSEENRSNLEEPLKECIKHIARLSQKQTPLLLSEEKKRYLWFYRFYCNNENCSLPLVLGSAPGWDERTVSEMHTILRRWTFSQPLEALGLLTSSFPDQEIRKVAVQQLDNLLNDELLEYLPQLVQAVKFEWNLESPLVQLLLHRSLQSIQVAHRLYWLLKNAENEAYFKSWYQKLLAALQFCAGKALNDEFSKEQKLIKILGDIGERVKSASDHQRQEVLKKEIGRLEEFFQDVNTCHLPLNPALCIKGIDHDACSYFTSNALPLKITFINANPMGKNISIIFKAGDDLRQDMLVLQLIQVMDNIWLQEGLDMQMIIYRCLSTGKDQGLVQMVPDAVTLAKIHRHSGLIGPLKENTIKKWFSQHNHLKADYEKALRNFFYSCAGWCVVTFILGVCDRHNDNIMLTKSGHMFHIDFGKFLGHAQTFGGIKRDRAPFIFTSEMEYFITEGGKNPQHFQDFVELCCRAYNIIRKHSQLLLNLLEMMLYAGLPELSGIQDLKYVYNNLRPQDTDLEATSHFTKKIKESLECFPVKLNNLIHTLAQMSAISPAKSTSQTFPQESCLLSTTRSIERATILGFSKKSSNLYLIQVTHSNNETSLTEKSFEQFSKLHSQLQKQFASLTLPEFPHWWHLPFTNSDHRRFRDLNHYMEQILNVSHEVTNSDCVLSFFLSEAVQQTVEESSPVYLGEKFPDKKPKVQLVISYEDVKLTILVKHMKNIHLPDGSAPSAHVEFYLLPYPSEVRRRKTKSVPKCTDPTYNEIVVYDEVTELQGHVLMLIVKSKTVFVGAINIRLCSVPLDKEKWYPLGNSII

[2] = target: T2, Serine/threonine-protein kinase ICK (Homo sapiens) (UniProt Q9UPZ9); assay: Selectivity interaction (KinomeScan (DiscoverX)) EUB0000092b ICK; conditions: at 10 µM
T2 sequence (whole entry): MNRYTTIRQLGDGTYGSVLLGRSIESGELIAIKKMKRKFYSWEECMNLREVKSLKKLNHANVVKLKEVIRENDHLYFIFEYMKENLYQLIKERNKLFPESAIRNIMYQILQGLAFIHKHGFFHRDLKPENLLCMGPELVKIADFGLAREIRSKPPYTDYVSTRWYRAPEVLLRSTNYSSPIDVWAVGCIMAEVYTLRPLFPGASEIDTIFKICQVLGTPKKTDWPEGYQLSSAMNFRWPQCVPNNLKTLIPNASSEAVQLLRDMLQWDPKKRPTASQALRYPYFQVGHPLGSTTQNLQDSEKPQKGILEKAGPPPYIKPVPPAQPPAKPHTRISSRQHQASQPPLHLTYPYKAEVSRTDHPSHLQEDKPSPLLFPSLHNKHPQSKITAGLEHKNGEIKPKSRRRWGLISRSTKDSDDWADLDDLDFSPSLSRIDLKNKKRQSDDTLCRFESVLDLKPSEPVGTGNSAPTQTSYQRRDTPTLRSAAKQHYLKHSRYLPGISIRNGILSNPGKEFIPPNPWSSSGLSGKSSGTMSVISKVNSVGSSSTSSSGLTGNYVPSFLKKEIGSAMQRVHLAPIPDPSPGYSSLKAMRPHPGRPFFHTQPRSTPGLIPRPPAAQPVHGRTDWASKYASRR

[3] = target: Platelet-derived growth factor receptor alpha (Homo sapiens, UniProt P16234); assay: Selectivity interaction (KinomeScan (DiscoverX)) EUB0000695a PDGFRA; conditions: at 100 nM
Chain of Platelet-derived growth factor receptor alpha (P16234 whole entry): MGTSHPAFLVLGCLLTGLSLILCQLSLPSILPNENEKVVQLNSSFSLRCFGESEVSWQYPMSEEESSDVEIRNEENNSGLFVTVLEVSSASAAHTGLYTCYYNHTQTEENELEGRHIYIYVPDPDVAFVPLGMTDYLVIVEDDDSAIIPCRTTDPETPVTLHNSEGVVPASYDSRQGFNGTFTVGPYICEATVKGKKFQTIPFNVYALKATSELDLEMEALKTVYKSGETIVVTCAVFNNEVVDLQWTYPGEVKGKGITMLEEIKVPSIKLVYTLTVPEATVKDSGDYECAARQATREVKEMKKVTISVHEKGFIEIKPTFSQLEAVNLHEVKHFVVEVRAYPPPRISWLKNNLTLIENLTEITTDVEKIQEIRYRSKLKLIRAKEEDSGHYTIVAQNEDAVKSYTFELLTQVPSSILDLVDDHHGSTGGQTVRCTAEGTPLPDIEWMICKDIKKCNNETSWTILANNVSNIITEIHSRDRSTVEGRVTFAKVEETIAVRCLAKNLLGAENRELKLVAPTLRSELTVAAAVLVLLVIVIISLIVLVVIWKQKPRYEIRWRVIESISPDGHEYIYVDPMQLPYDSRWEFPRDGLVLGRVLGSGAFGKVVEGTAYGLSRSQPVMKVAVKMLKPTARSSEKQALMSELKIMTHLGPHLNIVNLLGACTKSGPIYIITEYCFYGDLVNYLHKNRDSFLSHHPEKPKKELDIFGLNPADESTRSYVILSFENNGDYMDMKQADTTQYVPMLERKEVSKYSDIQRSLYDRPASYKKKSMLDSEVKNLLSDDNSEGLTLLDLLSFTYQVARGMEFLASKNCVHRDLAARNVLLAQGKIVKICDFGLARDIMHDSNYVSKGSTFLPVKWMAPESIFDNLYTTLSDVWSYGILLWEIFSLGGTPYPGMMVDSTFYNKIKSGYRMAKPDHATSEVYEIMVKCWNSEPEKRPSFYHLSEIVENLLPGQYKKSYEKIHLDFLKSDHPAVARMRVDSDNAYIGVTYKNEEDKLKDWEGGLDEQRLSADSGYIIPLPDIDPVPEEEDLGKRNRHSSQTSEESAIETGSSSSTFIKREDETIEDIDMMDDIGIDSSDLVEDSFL

[4] = target: T3, Serine/threonine-protein kinase Sgk3 (Homo sapiens) (UniProt Q96BR1); assay: Selectivity interaction (KinomeScan (DiscoverX)) EUB0000607a SGK3; conditions: at 10 µM
T3 sequence (whole entry): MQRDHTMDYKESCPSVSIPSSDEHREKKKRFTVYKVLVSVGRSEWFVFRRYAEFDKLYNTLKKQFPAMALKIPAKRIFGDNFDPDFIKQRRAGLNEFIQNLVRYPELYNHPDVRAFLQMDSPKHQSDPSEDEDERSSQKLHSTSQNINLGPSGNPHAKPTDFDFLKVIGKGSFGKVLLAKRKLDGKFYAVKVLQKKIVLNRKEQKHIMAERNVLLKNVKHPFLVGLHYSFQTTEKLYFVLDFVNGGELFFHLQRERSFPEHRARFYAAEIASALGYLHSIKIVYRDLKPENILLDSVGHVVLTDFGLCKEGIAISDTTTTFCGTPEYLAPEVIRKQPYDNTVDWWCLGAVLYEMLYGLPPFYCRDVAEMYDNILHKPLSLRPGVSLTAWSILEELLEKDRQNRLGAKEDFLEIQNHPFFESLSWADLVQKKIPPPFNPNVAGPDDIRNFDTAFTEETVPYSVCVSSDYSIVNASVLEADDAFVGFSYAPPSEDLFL

[5] = target: Ribosomal protein S6 kinase alpha-5 (Homo sapiens) (UniProt O75582); assay: Selectivity interaction (KinomeScan (DiscoverX)) EUB0001868a RPS6KA5; conditions: at 1 µM
Chain of Ribosomal protein S6 kinase alpha-5 (Homo sapiens) (O75582 whole entry, looked up): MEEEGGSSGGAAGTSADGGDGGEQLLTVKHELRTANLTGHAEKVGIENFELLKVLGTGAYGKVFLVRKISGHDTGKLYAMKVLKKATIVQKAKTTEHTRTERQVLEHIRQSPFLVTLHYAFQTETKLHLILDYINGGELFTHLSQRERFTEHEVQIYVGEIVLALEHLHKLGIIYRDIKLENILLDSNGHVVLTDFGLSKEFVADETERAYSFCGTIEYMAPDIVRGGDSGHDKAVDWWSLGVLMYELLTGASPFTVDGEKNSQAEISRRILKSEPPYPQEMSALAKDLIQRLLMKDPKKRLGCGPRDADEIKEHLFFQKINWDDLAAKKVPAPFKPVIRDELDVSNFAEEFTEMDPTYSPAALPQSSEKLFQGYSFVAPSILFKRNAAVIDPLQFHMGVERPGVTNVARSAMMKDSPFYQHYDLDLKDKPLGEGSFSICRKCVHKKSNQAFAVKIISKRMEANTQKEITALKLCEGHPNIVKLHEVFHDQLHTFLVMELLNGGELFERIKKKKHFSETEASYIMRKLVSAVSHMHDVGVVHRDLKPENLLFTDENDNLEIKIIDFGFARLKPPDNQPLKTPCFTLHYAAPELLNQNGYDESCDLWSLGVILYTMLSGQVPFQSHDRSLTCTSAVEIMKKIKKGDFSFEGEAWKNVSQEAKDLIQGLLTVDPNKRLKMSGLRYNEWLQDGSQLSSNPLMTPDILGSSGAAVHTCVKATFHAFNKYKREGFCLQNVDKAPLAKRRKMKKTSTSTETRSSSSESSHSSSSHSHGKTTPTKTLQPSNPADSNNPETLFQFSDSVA

[6] = target: Non-receptor tyrosine-protein kinase TYK2 (Homo sapiens, UniProt P29597); assay: Selectivity interaction (Kinase panel (Z-LYTE Assay)) EUB0001632a TYK2; conditions: at 10 µM
Chain of Non-receptor tyrosine-protein kinase TYK2 (P29597 whole entry): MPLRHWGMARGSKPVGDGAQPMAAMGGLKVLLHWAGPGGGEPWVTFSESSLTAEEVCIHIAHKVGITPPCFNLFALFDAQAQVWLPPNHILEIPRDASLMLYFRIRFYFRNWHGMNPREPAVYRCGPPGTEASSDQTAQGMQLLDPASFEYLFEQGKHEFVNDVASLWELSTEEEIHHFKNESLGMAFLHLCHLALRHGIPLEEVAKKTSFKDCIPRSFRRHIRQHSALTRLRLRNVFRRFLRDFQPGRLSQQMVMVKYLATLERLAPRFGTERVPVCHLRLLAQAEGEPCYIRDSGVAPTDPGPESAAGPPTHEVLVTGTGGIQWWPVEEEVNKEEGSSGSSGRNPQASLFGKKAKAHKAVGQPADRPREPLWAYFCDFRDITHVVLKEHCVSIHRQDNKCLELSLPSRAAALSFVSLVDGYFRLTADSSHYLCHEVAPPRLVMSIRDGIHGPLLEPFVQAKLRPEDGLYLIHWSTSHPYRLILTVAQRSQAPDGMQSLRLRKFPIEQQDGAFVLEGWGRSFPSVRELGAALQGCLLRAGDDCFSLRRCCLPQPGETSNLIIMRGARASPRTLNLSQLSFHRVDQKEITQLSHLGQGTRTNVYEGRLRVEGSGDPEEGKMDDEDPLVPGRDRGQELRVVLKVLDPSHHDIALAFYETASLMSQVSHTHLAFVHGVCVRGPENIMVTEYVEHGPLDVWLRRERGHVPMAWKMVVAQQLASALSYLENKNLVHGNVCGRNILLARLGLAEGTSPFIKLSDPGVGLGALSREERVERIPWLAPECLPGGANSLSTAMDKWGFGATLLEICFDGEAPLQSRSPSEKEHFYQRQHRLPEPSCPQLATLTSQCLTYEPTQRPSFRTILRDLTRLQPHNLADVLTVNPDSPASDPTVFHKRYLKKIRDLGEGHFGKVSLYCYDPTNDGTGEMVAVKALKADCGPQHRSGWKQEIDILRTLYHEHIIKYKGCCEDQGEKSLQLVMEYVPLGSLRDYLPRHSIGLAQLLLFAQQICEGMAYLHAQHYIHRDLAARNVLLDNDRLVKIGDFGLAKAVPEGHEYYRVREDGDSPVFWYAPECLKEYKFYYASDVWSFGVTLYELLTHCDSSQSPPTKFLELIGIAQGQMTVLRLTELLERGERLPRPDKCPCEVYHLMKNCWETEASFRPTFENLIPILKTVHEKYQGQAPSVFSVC

[7] = target: Serine/threonine-protein kinase pim-3 (Homo sapiens) (UniProt Q86V86); assay: Selectivity interaction (Kinase panel (Z-LYTE Assay)) EUB0001632a PIM3; conditions: at 10 µM

For O=C(NOC[C@H](O)CO)c1ccc(F)c(F)c1Nc1ccc(I)cc1F, the % of control [1] was 48%.
Compound CCC(=O)N1CCN(c2ccc(-n3c(=O)ccc4cnc5ccc(-c6cnc7ccccc7c6)cc5c43)cc2C(F)(F)F)CC1 has a % of control [2] of 100%.
Cc1cc(F)c(C(=O)Nc2cccc(-c3nncn3C(C)C)n2)cc1-n1cnc(C2CC2)c1 gave a % of control [3] of 100%.
For CNC(=O)Nc1ccc(-c2nc(N3CC4CCC(C3)O4)c3cnn(C4CCC5(CC4)OCCO5)c3n2)cc1, the % of control [4] was 100%.
Cc1cc(-c2ccnc(Nc3cnn(C)c3)n2)ccc1CNC(=O)N1CC(OC(C)C)C1 showed a % of control [5] of 42%.
For Cn1cc(-n2cnc3c(NCc4nc5cc(Cl)c(Cl)cc5[nH]4)nc(N4CCOCC4)nc32)cn1, the % of control [6] was 2.01% and the % of control [7] was -7.71%.
